Laboratory results taken from PubChem BioAssay AID489040 (Sanford-Burnham Center for Chemical Genomics, 2010).
pEC50: −log10 of the molar value. Calls of active or inactive are those of the source.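 Rule for the calls: active = mean half-maximal activating concentration from the dose-response fit at or below a set limit; inactive = the rest.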

Target: CHO-XBP1 luciferase reporter, IRE1-XBP1 UPR activation
Experiment: activators of IRE1-XBP1 UPR arm, dose response, counter-screen for apoptotic UPR arm activators, CHO-XBP1 cells, luminescence (AID 489040);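 note: reporter read after six hours of compound exposure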

Structure (SMILES)	EC50	pEC50
O=C(/C=C/c1ccc(O)c(O)c1)OCCc1ccccc1	> 80 µM (inactive)	–
S=C1SCN(Cc2ccco2)CN1Cc1ccco1	> 80 µM (inactive)	–
C=CCNC(=S)N/N=C(\C)c1ccccn1	> 80 µM (inactive)	–
CCNc1ccccc1CP(=O)(c1ccccc1)c1ccccc1O (stereo not drawn)	> 80 µM (inactive)	–
O=C(Cn1ncc(Cl)c(Cl)c1=O)c1ccc2c(c1)OCCO2	> 80 µM (inactive)	–
O=C1/C(=C/c2ccc(N3CCOCC3)o2)SC(=Nc2ccccc2)N1CCc1c[nH]c2ccccc12	> 80 µM (inactive)	–
C/C(=N\NC(=O)c1cc(-c2cccs2)nc2ccccc12)c1ccccn1	> 80 µM (inactive)	–
CC(=O)N(\C=C/C=C/C=C1\Sc2ccccc2C1=O)c1ccccc1	> 80 µM (inactive)	–
Cc1ccc2oc(Nc3nc(-c4ccccc4)cc(=O)[nH]3)nc2c1	> 80 µM (inactive)	–
COc1ccc(CCN2CCC(Nc3nc4ccccc4n3Cc3ccc(F)cc3)CC2)cc1	> 80 µM (inactive)	–
C=CCN1C(=O)/C(=C/c2ccc3c(c2)CCCN3CCC)C(=O)NC1=S	> 80 µM (inactive)	–
Cc1ccc(-c2nc(NC(=O)c3nn(C)cc3[N+](=O)[O-])sc2C)cc1	> 80 µM (inactive)	–
O=c1c2c3c(sc2ncn1/N=C/c1ccc([N+](=O)[O-])o1)CCCC3	> 80 µM (inactive)	–
Oc1c(CN2CCc3ccccc3C2)cc(Cl)c2cccnc12	> 80 µM (inactive)	–
COc1ccc(C(=O)Sc2ccc(Cl)cc2)cc1OC	> 80 µM (inactive)	–
C=C1C(=O)C=C[C@]2(C)C[C@@H]3OC(=O)[C@](C)(O)[C@H]3C[C@@H]12	> 80 µM (inactive)	–
CC[C@@H](C)[C@H](NC(=O)OC(C)(C)C)c1nnc(S(=O)(=O)Cc2cc(C)ccc2C)o1	> 80 µM (inactive)	–
CCOC(=O)c1cnc(-n2nc(C)cc2C)nc1Nc1ccc(N(C)C)cc1	> 80 µM (inactive)	–
COc1ccc(C2c3ccc4ccccc4c3Oc3ncn(CCCN(C)C)c(=N)c32)cc1 (stereo not drawn)	> 80 µM (inactive)	–
O=C(C=C=Nc1ccccc1)C(=O)N=C=Cc1ccccc1	> 80 µM (inactive)	–
CC(C)c1ccc(NC(=O)/C(C#N)=C/c2ccncc2)cc1	> 80 µM (inactive)	–
CCOc1ccc(-c2nnc(SCC(=O)Nc3ccc4c(c3)c3ccccc3n4CC)n2N)cc1	> 80 µM (inactive)	–
CN=c1scc(-c2ccco2)n1/N=C/c1ccc(O)c(O)c1	> 80 µM (inactive)	–
CCOc1cccc(C(=O)Nc2cccc(-c3nnc(-c4ccc(C)cc4)o3)c2)c1	> 80 µM (inactive)	–
Cc1c(C(=O)c2no[n+]([O-])c2C(=O)c2cnn(C)c2C)cnn1C	> 80 µM (inactive)	–

Structure (SMILES)	EC50	pEC50
Cc1cc(C)cc(NC(=O)/C(C#N)=C/c2cn(CC(=O)NCc3ccco3)c3ccccc23)c1	> 80 µM (inactive)	–
CC(C)(C)C(=O)OCc1nc(-c2ccc(O)c(O)c2)cs1	> 80 µM (inactive)	–
Cc1ccc(NN2C(=O)C=C(c3ccccc3)C2=O)cc1	> 80 µM (inactive)	–
Nc1cccc(-c2nc3cc(S(=O)(=O)c4ccc5oc(-c6cccc(N)c6)nc5c4)ccc3o2)c1	> 80 µM (inactive)	–
Cn1c2ccccc2c2cc(/C=N/NC(=O)c3cc(O)ccc3O)ccc21	> 80 µM (inactive)	–
Cc1cc(N/N=C/c2ccccc2[N+](=O)[O-])nc(-n2nc(C)cc2C)n1	> 80 µM (inactive)	–
CCOC(=O)c1cnc(Nc2nc3ccccc3o2)nc1CSC(=S)N1CCCCC1	–	5.04
COc1ccc(Cn2c(SCc3ccc(C)cc3)nc3cc(OC)c(OC)cc3c2=N)cc1Cl	> 80 µM (inactive)	–
COCc1ccc(O)c2ncccc12	inactive	–
CCOc1cc(/C=C2\CN(CC)C/C(=C\c3ccc(O)c(OCC)c3)C2=O)ccc1O	> 80 µM (inactive)	–
CCOC(=O)/C(=C\c1cccc(O)c1)c1nc2sc(C)c(C)c2c(=O)[nH]1	> 80 µM (inactive)	–
COc1cc(/C=C2\COC/C(=C\c3ccc(O)c(OC)c3)C2=O)ccc1O	> 80 µM (inactive)	–
O=C(Cn1cc(/C=C\[N+](=O)[O-])c2ccccc21)Nc1ccccc1	> 80 µM (inactive)	–
Cc1cccc(/C=C/C(=O)c2ccc([N+](=O)[O-])o2)c1	> 80 µM (inactive)	–
C/C(=N/NC(=O)c1ccc(C(C)(C)C)cc1)c1ccccn1	> 80 µM (inactive)	–
O=C1CC(c2cccc(Cl)c2)CC(O)=C1C=Nc1ccccc1 (stereo not drawn)	> 80 µM (inactive)	–
COc1cc(C(=O)Oc2c(CN3CCOCC3)cc(Cl)c3cccnc23)cc(OC)c1OC	> 80 µM (inactive)	–
COc1cc(OC)cc(C(=O)NC(=S)Nc2cc3oc4ccccc4c3cc2OC)c1	> 80 µM (inactive)	–
O=C(Nc1cccc(S(=O)(=O)N2CCCCC2)c1)c1ccc([N+](=O)[O-])o1	> 80 µM (inactive)	–
CCOC(=O)c1c(C)oc2c1c(C(c1cccnc1)N1CCCCC1)c(O)c1ccccc12 (stereo not drawn)	> 80 µM (inactive)	–
Oc1ccc(/C=N/N(c2ccccc2)c2ccccc2)cc1O	inactive	–
CN1CCN(c2ccc(NC(=O)c3ccc([N+](=O)[O-])o3)cc2Cl)CC1	> 80 µM (inactive)	–
O=C(CSC(=S)N1CCCC1)c1cc(Br)cc(Br)c1O	> 80 µM (inactive)	–
Cc1cccc(-n2c(/C=C/c3ccc([N+](=O)[O-])o3)nc3ccccc3c2=O)c1	> 80 µM (inactive)	–
COc1ccc(NC(=O)c2nc(S(=O)(=O)Cc3cccc(C)c3)ncc2Cl)c(OC)c1	> 80 µM (inactive)	–

Structure (SMILES)	EC50	pEC50
CCOc1ccccc1-n1c(SCC(=O)Nc2ccc(CC)cc2)nc2n[nH]c(C)c2c1=N	–	5.10
Cc1ccc(-c2nc(N/N=C/c3cccc([N+](=O)[O-])c3)c3ccccc3n2)cc1	> 80 µM (inactive)	–
O=C(CCl)Nc1cccc(CP(=O)(c2ccccc2)c2ccccc2)c1	> 80 µM (inactive)	–
Oc1ccc(/C=N/Nc2nc(N3CCCC3)nc(N3CCCC3)n2)cc1O	–	4.74
Cc1cc(C(=O)CCl)c(C)n1-c1cccc([N+](=O)[O-])c1	> 80 µM (inactive)	–
O=C(CN1CCN(c2ccccc2F)CC1)c1ccc(O)c(O)c1	> 80 µM (inactive)	–
O=C(Nc1ccc(S(=O)(=O)N2CCCC2)cc1)c1ccc([N+](=O)[O-])o1	> 80 µM (inactive)	–
COc1cc(SC#N)ccc1N=Cc1c(C)[nH]n(-c2ccc(C)c(C)c2)c1=O	> 80 µM (inactive)	–
CCSC1(SCC)N=C(N)C2(C#N)C(c3ccc(F)cc3)C12C#N (stereo not drawn)	> 80 µM (inactive)	–
S=C1SCN(CC2CC2)CN1CC1CC1	> 80 µM (inactive)	–
CN(/N=C\c1ccc(O)c(O)c1)c1nc(-c2ccccc2)cc(-c2ccccc2)n1	–	5.30
OCCNc1nc(Nc2ccc(Br)cc2)nc2ccccc12	–	5.29
S=C1SCN(CCN2CCOCC2)CN1Cc1ccccc1	> 80 µM (inactive)	–
CC(C)c1cccc(-c2ccc3c(c2)S(=O)(=O)c2cccc(C(=O)NCc4ccccc4Cl)c2C3=O)c1	–	4.95
CC(C)c1ccc(N2C(=O)NC(=O)/C(=C\C=C\c3ccco3)C2=O)cc1	> 80 µM (inactive)	–
Cc1ccc(S/C=C\C(=O)c2ccccc2)cc1	> 80 µM (inactive)	–
O=C(NCc1cccnc1)/C(=C\c1ccc(-c2ccc(Br)cc2)o1)S(=O)(=O)c1ccccc1	> 80 µM (inactive)	–
O=C1NN(c2cccc(Br)c2)C(=O)/C1=C/c1cccs1	–	5.05
N#CC1(C#N)COC23CCCCC2C1(C#N)C(=N)O3 (stereo not drawn)	> 80 µM (inactive)	–
Cc1noc2ncnc(Sc3ccc(Cl)cc3)c12	> 80 µM (inactive)	–
Cc1cc(SCC(=O)N/N=C/c2ccc(O)c(O)c2)nc2ccccc12	inactive	–
Cc1cc(-n2c(C)cc(C(=O)CCl)c2C)no1	> 80 µM (inactive)	–
COc1cccc(N=Cc2c(O)c3ccccc3oc2=O)c1	> 80 µM (inactive)	–
O=C(/C(=N/N=C/c1ccc(O)c(O)c1)c1ccccc1)c1ccccc1	> 80 µM (inactive)	–
C/C(CCC12CC3CC(CC(C3)C1)C2)=N\NC(N)=S	> 80 µM (inactive)	–

Structure (SMILES)	EC50	pEC50
Cc1cccc(Nc2nc(-c3ccccn3)cs2)n1	> 80 µM (inactive)	–
O=C(Nc1nc(-c2ccccn2)cs1)c1cc(Cl)ccc1[N+](=O)[O-]	> 80 µM (inactive)	–
Cc1ccc(-c2cc(-c3ccc(C)cc3)[n+](-c3ccccc3)c(-c3ccc(C)cc3)c2)cc1	> 80 µM (inactive)	–
Cc1cc(C(=O)CCl)c(C)n1CCc1ccccc1	> 80 µM (inactive)	–
COc1ccc(CCNC(=O)c2coc(=O)c(Br)c2)cc1	> 80 µM (inactive)	–
Cc1nc(NC(=O)/C=C/c2ccccc2)n[nH]1	> 80 µM (inactive)	–
CS(=O)(=O)c1nc(-c2ccc(Br)cc2)cc(-c2ccccc2)c1C#N	> 80 µM (inactive)	–
S=C(Nc1ccccc1)Nc1nccs1	> 80 µM (inactive)	–
COc1ccc(/C=C/c2nc3cc(-c4ccccc4)ccc3o2)cc1O	> 80 µM (inactive)	–
O=C(Oc1ccccc1/C=C\C(=O)c1cc2ccccc2o1)c1ccccc1	> 80 µM (inactive)	–
COc1cc(/C=C/[N+](=O)[O-])ccc1O	> 80 µM (inactive)	–
O=C(/C=C/c1ccc([N+](=O)[O-])cc1)/C=C/c1ccco1	> 80 µM (inactive)	–
CCOC(=O)c1ccc(N2C(=O)C=CC2=O)cc1	> 80 µM (inactive)	–
CCOC(=O)C(=CNc1nc(-c2ccccc2)c(C(=O)Nc2ccc(-c3ccccc3)cc2)s1)C(=O)OCC	inactive	–
C/C(=N\NC(=O)C(c1ccccc1)c1ccccc1)c1ccccn1	> 80 µM (inactive)	–
CC(C)(C)c1ccc(/C=C(\c2nc3ccccc3[nH]2)S(=O)(=O)c2ccccc2)cc1	> 80 µM (inactive)	–
COc1ccc(-c2nc(-c3ccccc3)nc(Cl)c2C#N)cc1	inactive	–
Cc1ccc(C(=O)C(C(=O)/C=C/c2ccccc2)=C2SCCCS2)cc1	> 80 µM (inactive)	–
Cc1cccc(OCCN2CSC(=S)N(C)C2)c1	> 80 µM (inactive)	–
CN(C)CC(C(=O)c1ccccc1)c1ccccc1 (stereo not drawn)	> 80 µM (inactive)	–
Cc1cc(C(=O)c2ccc(Cl)cc2)c(NC(=O)CCl)s1	> 80 µM (inactive)	–
COc1ccc(NS(=O)(=O)c2ccc3ccccc3c2)c2ncccc12	> 80 µM (inactive)	–
Cc1[nH]c2c(C)cccc2c1CCNC(=O)c1ccc2c(c1[N+](=O)[O-])C(=O)c1ccccc1C2=O	> 80 µM (inactive)	–
